# In patent US11357852B2, “Diglycosylated benzophenoxazine photosensitizer and preparation method and use thereof” (The Third Xiangya Hospital of Central South University, priority 2017, dated 2022):
# Columns and labels:
# Format in all cases: cell-based
# β-Catenin = assay: Western Blot of β-Catenin expression in A-431 cells; conditions: Western Blot (FIG. 6)
# From the text: (§1) The Wnt signaling pathway mainly refers to a classic Wnt signaling pathway mediated by β-Catenin. In the absence of the Wnt signaling, GSK3β can add a phosphate group to the serine/threonine residue at the N-terminus of β-Catenin. The phosphorylated β-Catenin is covalently modified by β-TRCP ubiquitination and then degraded by a proteasome. […] Therefore, by measuring the phosphorylation statuses of GSK3β, β-Catenin and PP2A, we can directly understand whether the Wnt signaling is activated. C-myc and Cyclin D1 as protooncogenes can promote division and translation of the cells of cutaneous squamous cell carcinoma, and ultimately promote cell proliferation. By observing C-myc and Cyclin D1, we can clearly understand the inhibition effect of the photosensitizer of the present invention on proliferation of the A-431 cells. […]
# (§2) A-431 cells at the logarithmic growth phase were digested with trypsin, and inoculated into a six-well culture plate, and cultured in a 5% CO2 incubator at 37° C. […] Respectively after 0.5 h and 16 h, the cells were collected to extract total protein, and the p-GSK3β, p-PP2A, p-β-catenin, C-myc, Cyclin D1 and β-Catenin in the cells were detected by the Western Blot method.
# C-myc = assay: Western Blot of C-myc expression in A-431 cells; conditions: Western Blot (FIG. 6)
# From the text: as §1, §2
# p-GSK3β = assay: Western Blot of GSK3β phosphorylation in A-431 cells; conditions: 200 to 800 nM, 20 J/cm^2 red light 15 min, Western Blot (FIG. 5)
# From the text: as §1, §2
# p-PP2A = assay: Western Blot of PP2A phosphorylation in A-431 cells; conditions: 200 to 800 nM, 20 J/cm^2 red light 15 min, Western Blot (FIG. 5)
# From the text: as §1, §2
# p-β-catenin = assay: Western Blot of β-catenin phosphorylation in A-431 cells; conditions: 100 nM and 400 to 800 nM, 20 J/cm^2 red light 15 min, Western Blot (FIG. 5)
# From the text: as §1, §2
# Cyclin D1 = assay: Western Blot of Cyclin D1 expression in A-431 cells; conditions: Western Blot (FIG. 6)
# From the text: as §1, §2
# A-431 cells = assay: MTT method, proliferation of A-431 cells after photosensitizer and red light irradiation
# Experimental: The MTT method is a method for detecting cell survival and growth. The detection principle of it is that a succinate dehydrogenase in mitochondria of living cells can reduce exogenous MTTs to water-insoluble blue-violet crystalline formazan and deposit the formazan in the cells, while dead cells have no such function. Dimethyl sulfoxide (DMSO) can dissolve the formazan in the cells, and the light absorbance value of it is measured at 490 nm wavelength with an enzyme-linked immunometric meter, which can indirectly reflect the number of living cells.
# The cell line A-431 of cutaneous squamous cell carcinoma was cultured in a DMEM medium that contained 10% calf serum, added with […] of penicillin and 100 mg/L of streptomycin, and placed in a constant-temperature incubator at 37° C. and containing 5% CO2 for conventional culture. After the cells grew to confluence on the bottom of the flask, the medium was discarded, the cells were rinsed twice with a PBS solution, and then digested with 0.25% trypsin and 0.02% EDTA for 5 minutes, and then subcultured into flasks once every 2 to 3 days. The cells at the logarithmic growth phase were taken for experiment.
# A-431 cells at the logarithmic growth phase were digested with trypsin, and inoculated into a six-well culture plate, and cultured in a 5% CO2 incubator at 37° C. When grew to the confluence of 80%-90%, the cells were respectively added with distilled water and 100 nM, 200 nM, 400 nM, 600 nM and 800 nM of the diglycosylated benzophenoxazine photosensitizer referred in the present invention. After incubation for 1 h, the cells were irradiated with 20 J/cm^2 of red light for 15 min. 16 h later, the survival and growth status of the cells were detected by the MTT method.
structure (smiles),measurement,setting,value
CCN(CC)CCC(C)(C[Se]N(CC)c1ccc2nc3c4ccccc4/c(=N\[Se]CC(C)(CN(CC)CC)ONC4C(O)C(O)C(CO)O[C@@H]4O)cc-3[se]c2c1)ONC1C(O)C(O)C(CO)O[C@@H]1O (stereo partly drawn),expression quantity of β-Catenin,β-Catenin; 100 to 400 nM,increased slightly
same,expression quantity of β-Catenin,β-Catenin; 600 and 800 nM,significantly decreased
same,expression quantity of C-myc,C-myc; 100 to 400 nM,increased slightly
same,expression quantity of C-myc,C-myc; 600 and 800 nM,significantly decreased
same,phosphorylation of GSK3β,p-GSK3β,significantly inhibit
same,phosphorylation of PP2A,p-PP2A,significantly inhibit
same,phosphorylation of β-catenin,p-β-catenin,significantly promote
same,expression quantity of Cyclin D1,Cyclin D1; 100 to 400 nM,increased slightly
same,expression quantity of Cyclin D1,Cyclin D1; 600 and 800 nM,significantly decreased
same,proliferation of A-431 cells,"A-431 cells; 600 nM and 800 nM, concluded from Western Blot results (FIG. 6)",significantly inhibit
same,proliferation of the A-431 cells,"A-431 cells; 100-800 nM, inhibition increases with dose, 20 J/cm^2 red light 15 min, MTT 16 h later",significantly inhibit
same,inhibition at 0.8 µM,"A-431 cells; Homo sapiens, light or radiation study, 800 nM, A-431 cells, incubation 1 h, 20 J/cm^2 red light 15 min, MTT 16 h later, read-out: proliferation inhibition effect",80%
